Measured values taken from patent US20250161476A1 (REGENERON PHARMACEUTICALS, INC., priority 2020, published 2025).
Where a SMILES comes first, the peptide text is derived from it. [ ]: non-standard residue; d: D form. The star is where a group is joined. Bip(2'-Et,4'-O(CH2)4NH2) = CCc1cc(OCCCCN)ccc1-c1ccc(C[C@H](N)C(=O)O)cc1; Malonyl(2,2-Me2,histaminyl) = CC(C)(C(=O)NCCc1cnc[nH]1)C(=O)*; Nva(5-(3,5-Me2Ph)) = Cc1cc(C)cc(CCC[C@H](N)C(=O)O)c1; Ala(1H-tetrazol-5-yl) = N[C@@H](Cc1nnn[nH]1)C(=O)O; X5 = C[C@]1(C(=O)*)CCN(CCc2cnc[nH]2)C1=O; αMePhe(2-F) = C[C@](N)(Cc1ccccc1F)C(=O)O; Desaminohistidyl = O=C(CCc1c[nH]cn1)*; X3 = CC(C)(C(=O)*)c1ccn[nH]1; X1 = O=C(CCCCCc1cnc[nH]1)*; X2 = CC(C)(C(N)=O)C(=O)*; X4 = CC(C)(C(=O)O)C(=O)*

Columns and labels:
[1] = biological target: human GLP1R (Homo sapiens (Human), UniProt P43220); test: cAMP responsive luciferase reporter assay, HEK293/CRE-Luc/hGLP1R cells; format: cell-based; conditions: for HEK293/CRE-LUC/hGLP1R S/N: highest RLU / RLU of untreated wells; for HEK293/CRE-LUC/hGLP1R Relative Potency (% P8 EC50) / HEK293/CRE-LUC/hGLP1R Relative Signal:Noise (% P8): relative to P8 of the same experiment
Text: (§1) To test the activity of GLP1R agonist payloads, GLP1R agonist linker-payloads (LPs), and anti-GLP1R antibody tethered drug conjugates (ATDCs) of the disclosure, a cell-based cAMP responsive luciferase reporter assay was developed. To generate the assay cell line, the firefly luciferase gene was placed under the control of a cAMP response element (CRE) located upstream of a minimal promoter and transfected into HEK293 cells and referred to herein as HEK293/CRE-Luc cells.
(§2) Three-fold serial dilutions of free payloads or LPs were prepared in 100% DMSO, transferred to fresh assay media, and added to the cells at a final constant DMSO concentration of 0.2%. The last well in the plate served as a blank control containing only the assay media and 0.2% DMSO (untreated well) and was plotted as a continuation of the 3-fold serial dilution. Four to six hours later, luciferase activity was determined after the addition of One-Glo™ reagent (Promega, Cat #E6130) to each well. Relative light units (RLUs) were measured on an Envision luminometer (PerkinElmer) and EC50 values were determined using a four-parameter logistic equation over a 12-point dose response curve (GraphPad Prism). The signal to noise (S/N) was determined by taking the ratio of the highest RLU on the dose response curve to the RLU in the untreated wells.
GLP1R agonist linker payloads were conjugated to anti-hGLP1R antibodies via N-terminal heavy or light chain Q tags. Several resulting anti-GLP1R antibody tethered drug conjugates (ATDCs) were tested for activity in the HEK293/CRE-Luc/hGLP1R reporter assay as described above for the free GLP1R payload and linker-payload agonists.

[2] = Plasma stability of payloads and linker-payloads, human plasma; format: in vitro ADME; conditions: for half-life at 2 µM: human, pooled plasma, pH 7.4, payload properties table, species not given, read-out: Plasma stability t½ (converted)
Procedure: The plasma stability of payloads and linker payloads of the disclosure were measured. For the assay, pooled frozen plasma (human, mouse or monkey) was thawed in cold water or a 37° C. water bath prior to experiment. Plasma was centrifuged at 4000 rpm for 5 min if any clots were observed, they were subsequently removed. If required, the pH was adjusted to 7.4±0.1. For the preparation of compounds and positive controls, a 1 mM intermediate solution was prepared by diluting 10 μL of their stock solution with 90 μL DMSO; a 1 mM intermediate solution of the positive control (Propantheline) was prepared by diluting 10 μL of its stock solution with 90 μL ultrapure water. […] 98 μL of plasma was spiked with 2 μL of dosing solution (100 μM) to achieve the final concentration of 2 μM in duplicate. Samples were then incubated at 37° C. in a water bath. […] At each time point, 400 μL of stop solution (200 ng/mL tolbutamide plus 200 ng/mL labetalol in 50% ACN/MeOH) was added to precipitate protein and mixed thoroughly. Sample plates were then centrifuged at 4,000 rpm for 10 min. An aliquot of supernatant (50 μL) was transferred from each well and mixed with 100 μL ultra-pure water. The samples were then shaken at 800 rpm for approximately 10 min before submitting for LC-MS/MS analysis.

[3] = tested on: HEK293/CRE-Luc cells; test: cAMP responsive luciferase reporter assay, HEK293/CRE-Luc cells (no hGLP1R expression); format: cell-based, human
Text: as §1, §2

Sequence of human GLP1R (P43220 24-463): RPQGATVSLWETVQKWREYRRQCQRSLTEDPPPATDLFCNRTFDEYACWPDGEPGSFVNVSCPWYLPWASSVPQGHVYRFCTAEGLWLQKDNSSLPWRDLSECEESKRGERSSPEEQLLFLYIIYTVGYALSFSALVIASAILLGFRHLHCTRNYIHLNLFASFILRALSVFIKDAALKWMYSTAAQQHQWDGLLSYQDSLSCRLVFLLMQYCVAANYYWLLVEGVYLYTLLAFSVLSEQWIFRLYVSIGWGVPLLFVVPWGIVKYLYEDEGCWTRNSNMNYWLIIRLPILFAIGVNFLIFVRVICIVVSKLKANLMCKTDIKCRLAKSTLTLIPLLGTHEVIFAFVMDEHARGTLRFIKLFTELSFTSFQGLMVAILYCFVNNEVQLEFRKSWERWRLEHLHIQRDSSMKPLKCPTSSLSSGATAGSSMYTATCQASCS

| Structure (SMILES) | HEK293/CRE-LUC/hGLP1R S/N [1] | HEK293/CRE-LUC/hGLP1R Relative Potency (% P8 EC50) [1] [%] | HEK293/CRE-LUC/hGLP1R Relative Signal:Noise (% P8) [1] [%] | Human plasma stability assay T½ ([2]; tested for 1 day (A)) [h] | half-life at 2 µM [2] [h] | EC50 [3] [nM] | HEK293/CRE-LUC S/N [3] | Human plasma stability assay T½ ([2]; tested for 2 hrs (B)) [h] |
| --- | --- | --- | --- | --- | --- | --- | --- | --- |
| CCc1cc(OCCCCN)ccc1-c1ccc(C[C@H](NC(=O)[C@H](CC(=O)O)NC(=O)[C@H](CO)NC(=O)[C@@H](NC(=O)[C@](C)(Cc2ccccc2F)NC(=O)[C@@H](NC(=O)CNC(=O)[C@H](Cc2nn[nH]n2)NC(=O)C(C)(C)C(=O)O)[C@@H](C)O)[C@@H](C)O)C(=O)N[C@@H](CCCc2cc(C)cc(C)c2)C(N)=O)cc1 [P3] (X4-[Ala(1H-tetrazol-5-yl)]GT[αMePhe(2-F)]TSD[Bip(2'-Et,4'-O(CH2)4NH2)][Nva(5-(3,5-Me2Ph))]-NH2) | 46.3 | 0.3 | 70.3 | >57.81 | > 57.8 | > 200 | 1.2 |  |
| CCc1cc(OCCCCN)ccc1-c1ccc(C[C@H](NC(=O)[C@H](CC(=O)O)NC(=O)[C@H](CO)NC(=O)[C@@H](NC(=O)[C@](C)(Cc2ccccc2F)NC(=O)[C@@H](NC(=O)CNC(=O)[C@H](Cc2nn[nH]n2)NC(=O)C(C)(C)C(N)=O)[C@@H](C)O)[C@@H](C)O)C(=O)N[C@@H](CCCc2cc(C)cc(C)c2)C(N)=O)cc1 [P4] (X2-[Ala(1H-tetrazol-5-yl)]GT[αMePhe(2-F)]TSD[Bip(2'-Et,4'-O(CH2)4NH2)][Nva(5-(3,5-Me2Ph))]-NH2) | 66.9 | 6.3 | 101.8 | >57.81 | > 57.8 | > 200 | 1.6 |  |
| CCc1cc(OCCCCN)ccc1-c1ccc(C[C@H](NC(=O)[C@H](CC(=O)O)NC(=O)[C@H](CO)NC(=O)[C@@H](NC(=O)[C@](C)(Cc2ccccc2F)NC(=O)[C@@H](NC(=O)CNC(=O)[C@H](Cc2nn[nH]n2)NC(=O)C(C)(C)c2ccn[nH]2)[C@@H](C)O)[C@@H](C)O)C(=O)N[C@@H](CCCc2cc(C)cc(C)c2)C(N)=O)cc1 [P6] (X3-[Ala(1H-tetrazol-5-yl)]GT[αMePhe(2-F)]TSD[Bip(2'-Et,4'-O(CH2)4NH2)][Nva(5-(3,5-Me2Ph))]-NH2) | 60.7 | 0.9 | 92.3 | >57.81 | > 57.8 | > 200 | 1.0 |  |
| CCc1cc(OCCCCN)ccc1-c1ccc(C[C@H](NC(=O)[C@H](CC(=O)O)NC(=O)[C@H](CO)NC(=O)[C@@H](NC(=O)[C@](C)(Cc2ccccc2F)NC(=O)[C@@H](NC(=O)CNC(=O)[C@H](Cc2nn[nH]n2)NC(=O)C(C)(C)C(=O)NCCc2cnc[nH]2)[C@@H](C)O)[C@@H](C)O)C(=O)N[C@@H](CCCc2cc(C)cc(C)c2)C(N)=O)cc1 [P9, (8S,14S,17S,20S,23S,26S)-8-((2H-tetrazol-5-yl)methyl)-26-(((S)-1-(((S)-1-amino-5-(3,5-dimethylphenyl)-1-oxopentan-2-yl)amino)-3-(4′-(4-aminobutoxy)-2′-ethyl-[1,1′-biphenyl]-4-yl)-1-oxopropan-2-yl)carbamoyl)-17-(2-fluorobenzyl)-14,20-bis((R)-1-hydroxyethyl)-23-(hydroxymethyl)-1-(1H-imidazol-5-yl)-5,5,17-trimethyl-4,6,9,12,15,18,21,24-octaoxo-3,7,10,13, 16,19,22,25-octaazaoctacosan-28-oic acid] ({Malonyl(2,2-Me2,histaminyl)}-[Ala(1H-tetrazol-5-yl)]GT[αMePhe(2-F)]TSD[Bip(2'-Et,4'-O(CH2)4NH2)][Nva(5-(3,5-Me2Ph))]-NH2) | 75.2 | 133.8 | 114.3 | >57.81 | > 57.8 | > 200 | 1.3 |  |
| CCc1cc(OCCCCN)ccc1-c1ccc(C[C@H](NC(=O)[C@H](CC(=O)O)NC(=O)[C@H](CO)NC(=O)[C@@H](NC(=O)[C@](C)(Cc2ccccc2F)NC(=O)[C@@H](NC(=O)CNC(=O)[C@H](Cc2nn[nH]n2)NC(=O)[C@H](C)NC(=O)[C@@H](N)Cc2cnc[nH]2)[C@@H](C)O)[C@@H](C)O)C(=O)N[C@@H](CCCc2cc(C)cc(C)c2)C(N)=O)cc1 [P10] (H-HA[Ala(1H-tetrazol-5-yl)]GT[αMePhe(2-F)]TSD[Bip(2'-Et,4'-O(CH2)4NH2)][Nva(5-(3,5-Me2Ph))]-NH2) | 45.1 | 38.0 | 68.6 |  | 1.8 | > 200 | 1.2 | 1.83 |
| CCc1cc(OCCCCN)ccc1-c1ccc(C[C@H](NC(=O)[C@H](CC(=O)O)NC(=O)[C@H](CO)NC(=O)[C@@H](NC(=O)[C@](C)(Cc2ccccc2F)NC(=O)[C@@H](NC(=O)CNC(=O)[C@H](Cc2nn[nH]n2)NC(=O)CCCCCc2cnc[nH]2)[C@@H](C)O)[C@@H](C)O)C(=O)N[C@@H](CCCc2cc(C)cc(C)c2)C(N)=O)cc1 [P11] (X1-[Ala(1H-tetrazol-5-yl)]GT[αMePhe(2-F)]TSD[Bip(2'-Et,4'-O(CH2)4NH2)][Nva(5-(3,5-Me2Ph))]-NH2) | 54.8 | 0.8 | 83.4 | >57.81 | > 57.8 | > 200 | 1.1 |  |
| CCc1cc(OCCCCN)ccc1-c1ccc(C[C@H](NC(=O)[C@H](CC(=O)O)NC(=O)[C@H](CO)NC(=O)[C@@H](NC(=O)[C@](C)(Cc2ccccc2F)NC(=O)[C@@H](NC(=O)CNC(=O)[C@H](Cc2nn[nH]n2)NC(=O)CNC(=O)CCc2c[nH]cn2)[C@@H](C)O)[C@@H](C)O)C(=O)N[C@@H](CCCc2cc(C)cc(C)c2)C(N)=O)cc1 [P12] (Desaminohistidyl-G[Ala(1H-tetrazol-5-yl)]GT[αMePhe(2-F)]TSD[Bip(2'-Et,4'-O(CH2)4NH2)][Nva(5-(3,5-Me2Ph))]-NH2) | 76.4 | 46.5 | 116.2 | >57.81 | > 57.8 | > 200 | 1.2 |  |
| CCc1cc(OCCCCN)ccc1-c1ccc(C[C@H](NC(=O)[C@H](CC(=O)O)NC(=O)[C@H](CO)NC(=O)[C@@H](NC(=O)[C@](C)(Cc2ccccc2F)NC(=O)[C@@H](NC(=O)CNC(=O)[C@H](Cc2nn[nH]n2)NC(=O)[C@H](C)NC(=O)[C@H](Cc2c[nH]cn2)NC(=O)[C@@H](N)CCC(N)=O)[C@@H](C)O)[C@@H](C)O)C(=O)N[C@@H](CCCc2cc(C)cc(C)c2)C(N)=O)cc1 [P13] (H-QHA[Ala(1H-tetrazol-5-yl)]GT[αMePhe(2-F)]TSD[Bip(2'-Et,4'-O(CH2)4NH2)][Nva(5-(3,5-Me2Ph))]-NH2) | 69.5 | 1.5 | 105.6 | 16.9 | 16.9 | > 200 | 1.2 |  |
| CCc1cc(OCCCCN)ccc1-c1ccc(C[C@H](NC(=O)[C@H](CC(=O)O)NC(=O)[C@H](CO)NC(=O)[C@@H](NC(=O)[C@](C)(Cc2ccccc2F)NC(=O)[C@@H](NC(=O)CNC(=O)[C@H](Cc2nn[nH]n2)NC(=O)[C@@]2(C)CCN(CCc3cnc[nH]3)C2=O)[C@@H](C)O)[C@@H](C)O)C(=O)N[C@@H](CCCc2cc(C)cc(C)c2)C(N)=O)cc1 [P15-R] (X5-[Ala(1H-tetrazol-5-yl)]GT[αMePhe(2-F)]TSD[Bip(2'-Et,4'-O(CH2)4NH2)][Nva(5-(3,5-Me2Ph))]-NH2) | 67.8 | 40.3 | 103.1 |  |  | > 200 | 1.1 |  |
